{"source": "patent US8586125B2", "about": "“Thermal treatment of an implantable medical device” (Advanced Cardiovascular Systems, Inc., priority 1999, dated 2013)", "key": {"[1]": {"experiment": "Release Rate Profile Procedure (in vitro, HPLC)", "format": "physicochemical", "conditions": "as demonstrated in Example 53", "method": "This Example 41 is referred to as the “Release Rate Profile Procedure.” A drug-coated stent was placed on a stent holder of a Vankel Bio-Dis release rate tester (Vankel, Inc., Cary, N.C.). The stent was dipped into an artificial medium which stabilizes the 40-O-(2-hydroxy)ethyl-rapamycin in the testing solution, including a phosphate buffer saline solution (10 mM, pH 7.4) with 1% TRITON X-100 (Sigma Corporation), for a designated amount of time (e.g., 3 hours). Then the solution was analyzed for the amount of drug released from the stent coating using an HPLC process. The HPLC system consisted of a Waters 2690 system with an analytical pump, a column compartment (set at 40° C.), an auto-sampler, and a 996 PDA detector. The column was an YMC Pro C18 (150 mm×4.6 I.D., 3 μm particle size), maintained at a temperature of 40° C. The mobile phase consisted of 75% acetonitrile and 25% 20 mMolar ammonium acetate. […] After the drug solution was analyzed by HPLC the results were quantified by comparing the release rate results with a reference standard.\nIf the experimental protocol required that the stent coating be subjected to experimental conditions for an additional time, the stent was then dipped in a fresh medium solution for the necessary amount of time (e.g., another 3 hours) and the drug released in the solution was analyzed again according to the HPLC procedure described above. […]"}, "[2]": {"experiment": "Release rate from a standard polymeric coating", "format": "physicochemical", "conditions": "in about 24 hours", "description": "Another potential shortcoming of the foregoing method of medicating stents is that the release rate of the active agent may be too high to provide an efficacious treatment. This shortcoming may be especially pronounced with certain active agents. […] Thus, there is a need for a coating that reduces the release rate of active agents in order to provide a more efficacious release rate profile."}, "[3]": {"system": "coronary arteries", "experiment": "Cephalotaxin/EVOH coated stents implanted in porcine coronary arteries", "format": "in vivo, pigs", "conditions": "cephalotaxin coated vs uncoated and EVOH coated stents; estimated 33 μg cephalotaxin per stent", "method": "Multi-Link™ stents were cleaned by placement in an ultrasonic bath of isopropyl alcohol solution for 10 minutes. The stents were dried and plasma cleaned in a plasma chamber. An EVOH solution was made with 1 gram of EVOH and 7 grams of DMSO, making an EVOH:DMSO ratio of 1:7. Cephalotaxin was added to the 1:7 EVOH:DMSO solution. Cephalotaxin constituted 5% by weight of the total weight of the solution. The solution was vortexed and placed in a tube. The cleaned Multi-Link™ stents were attached to mandrel wires and dipped into the solution. The coated stents were passed over a hot plate, for about 3-5 seconds, with a temperature setting of about 60° C. The coated stents were cured for 6 hours in an air box then placed in a vacuum oven at 60° C. for 24 hours. The above process was repeated twice, having a total of three layers. The average weight of the coating was 0.00013 gram, with an estimated cephalotaxin concentration of 33 μg. The stents were sterilized by electron beam radiation. […]"}}}
{"smiles": "CO[C@H]1C[C@@H]2CC[C@@H](C)[C@@](O)(O2)C(=O)C(=O)N2CCCC[C@H]2C(=O)O[C@H]([C@H](C)C[C@@H]2CC[C@@H](OCCO)[C@H](OC)C2)CC(=O)[C@H](C)/C=C(\\C)[C@@H](O)[C@@H](OC)C(=O)[C@H](C)C[C@H](C)/C=C/C=C/C=C/1C", "note": "[40-O-(2-hydroxy)ethyl-rapamycin]", "values": [{"measurement": "decrease of the release rate by thermal treatment as compared to a control group", "setting": "[1]", "result": "about 50%"}, {"measurement": "release rate from a standard polymeric coating", "setting": "[2]", "result": "greater than 50%"}]}
{"smiles": "COC1=C[C@]23CCCN2CCc2cc4c(cc2[C@@H]3[C@@H]1O)OCO4", "note": "[cephalotaxin, Cephalotaxin]", "values": [{"measurement": "amount of neointimal proliferation resulting from arterial injury", "setting": "[3]", "result": "no significant difference"}]}
